PMC2409616 (British Journal of Cancer, 2004)
Several values for one entry are separate records, joined by “and”; a condition that tells them apart may be missing. Equal entries are not always repeated. Where two headings read alike, the source gives them in different places.

What was measured:
SiHa = assay: cells; conditions: Homo sapiens, 4 h, read-out: IC50 following 4 h drug exposure
WiDr = assay: cells; conditions: Homo sapiens, 4 h, read-out: IC50 following 4 h drug exposure
V79^puro = assay: cells; conditions: Cricetulus griseus, 4 h, read-out: IC50 following 4 h drug exposure
AA8 = assay: cells; conditions: Cricetulus griseus, CHO-AA8, 4 h, read-out: IC50 following 4 h drug exposure
UV4 [1] = assay: cells; conditions: Cricetulus griseus, UV4, 4 h, read-out: IC50 following 4 h drug exposure
UV4 [2] = system: UV4
SiHa MCLs = assay: Transport through multicellular layers (two-chamber diffusion apparatus); conditions: 100 μM in donor compartment
SiHa cells = assay: Metabolic consumption of prodrug in stirred single-cell suspensions (loss from extracellular medium); conditions: corrected to 10^6 cells ml^−1, mean±s.e.m., 2–3 cell suspensions
SiHa-NTR^puro cells = assay: as above; conditions: corrected to 10^6 cells ml^−1, mean±s.e.m., 2–3 cell suspensions

Structure (SMILES)	Bioactivity of HPLC fraction against UV4 cells (UV4 cells)	Appearance of metabolite in donor and receiver compartments (SiHa-NTR^puro MCLs)	Initial flux of metabolite (SiHa-NTR^puro MCLs; human) [µM/h]	IC50 (SiHa) [µM]	IC50 (WiDr) [µM]	IC50 (V79^puro) [µM]	IC50 (AA8) [µM]	IC50 (UV4 [1]) [µM]	AA8/UV4 intra-experiment IC50 ratio (UV4 [2])	Fold less potent in the four repair competent cell lines than in UV4 (UV4 [2])	Appearance in the receiver compartment in the presence of an MCL vs bare support membrane (SiHa MCLs)	First-order rate constant k of metabolic consumption (V79^puro cells (NTR−ve); V79^puro, corrected to 10^6 cells ml^−1, mean±s.e.m., 2–3 cell suspensions) [h⁻¹]	First-order rate constant k of metabolic consumption (V79-NTR^puro cells; V79-NTR^puro, corrected to 10^6 cells ml^−1, mean±s.e.m., 2–3 cell suspensions) [h⁻¹]	First-order rate constant k of metabolic consumption (SiHa cells) [h⁻¹]	First-order rate constant k of metabolic consumption (SiHa-NTR^puro cells) [h⁻¹]	First-order rate constant k of metabolic consumption (V79^puro cells (NTR−ve); Chinese hamster) [h⁻¹]	First-order rate constant k of metabolic consumption (V79-NTR^puro cells; Chinese hamster) [h⁻¹]	Bioactivity of HPLC fraction against UV4 cells (UV4 cells; extracellular medium of V79-NTR^puro suspensions (5 × 10^6 ml^−1, 3 h) with CB 1954)
NC(=O)c1cc(N2CC2)c([N+](=O)[O-])cc1N [compound 3]	significant cytotoxicity	accumulated in both compartments	~0.2	7.9 ± 3.3	21 ± 3	56 ± 7	28 ± 8	3.7 ± 0.7										
NC(=O)c1cc(N2CC2)c([N+](=O)[O-])cc1NO [compound 2]	significant cytotoxicity	not detected in either compartment					22	6.3	3.4									
NC(=O)c1cc(N(CCCl)CCCl)c([N+](=O)[O-])cc1NO [compound 8]				2.07 ± 0.08	1.2 ± 0.1	1.74 ± 0.23	2.3 ± 0.1	0.045 ± 0.001	51±1									
NC(=O)c1cc(N2CC2)c(NO)cc1[N+](=O)[O-] [compound 4, 5-(aziridin-1-yl)-4-hydroxylamino-2-nitrobenzamide]	greatest activity	not detected at all in the receiver compartment		45 ± 9	26 ± 5	6.9 ± 0.6	39 ± 6	0.62 ± 0.05	63 and 63±5	11–70 fold	greatly reduced							
NC(=O)c1cc(N(CCCl)CCCl)c([N+](=O)[O-])cc1[N+](=O)[O-] [compound 7, 5-[N,N-bis(2-chloroethyl)amino]-2,4-dinitrobenzamide]				> 800	> 1000	> 500	~1000	761 ± 89	ca 1.3			0.0020 ± 0.0001	0.17 ± 0.003	<0.001	0.6 ± 0.2			
NC(=O)c1cc(N2CC2)c(N)cc1[N+](=O)[O-] [compound 5]	significant cytotoxicity	accumulated in both compartments		163 ± 39	141 ± 34	238 ± 6	62 ± 12	47 ± 5	1.2±0.1									
NC(=O)c1cc(N2CC2)c([N+](=O)[O-])cc1[N+](=O)[O-] [compound 1, 5-(aziridin-1-yl)-2,4-dinitrobenzamide, reference compound]				277 ± 36	485 ± 34	2950 ± 113	2480 ± 260	135 ± 28						0.0066 ± 0.0001	0.22 ± 0.06	0.0010 ± 0.0004	0.08 ± 0.03	weak cytotoxicity
